Assay results published in BigSolDB 2.1.

C[C@H]1[C@H](C)CC[C@]2(C(=O)O)CC[C@]3(C)C(=CC[C@@H]4[C@@]5(C)CC[C@H](O)C(C)(C)[C@@H]5CC[C@]43C)[C@H]12
solubility (mole fraction)
Settings	278.15 K	283.15 K	288.15 K	293.15 K	298.15 K	303.15 K	308.15 K	313.15 K	318.15 K	323.15 K
in acetone	0.000384	0.000473	0.00058	0.000707	0.000836	0.001	0.00119	0.00139	0.00162	0.00187
in methanol	0.000447	0.000505	0.000579	0.000662	0.000746	0.000842	0.000955	0.00107	0.00121	0.00135
in water	1.16e-07	1.34e-07	1.55e-07	1.76e-07	2.02e-07	2.28e-07	2.57e-07	2.88e-07	3.18e-07	3.54e-07
